Results on two compounds are retold here after US7482363B2, “Piperidine derivatives useful as modulators of chemokine receptor activity” (AstraZeneca AB, priority 2002, dated 2009).

Test [1] relates to Human eosinophils (eotaxin mediated chemotaxis). Briefly: Human eosinophil chemotaxis. Format: cell-based. On the procedure:
Human Eosinophil Chemotaxis
Human eosinophils were isolated from EDTA anticoagulated peripheral blood as previously described (Hansel et al., J. Immunol. Methods, 1991, 145, 105-110). The cells were resuspended at 10×10^6 ml^−1 in RPMI containing 200 IU/ml penicillin, 200 μg/ml streptomycin sulphate and supplemented with 10% HIFCS, at room temperature.
Eosinophils (700 μl) were pre-incubated for 15 mins at 37° C. with 7 μl of either vehicle or compound (100× required final concentration in 10% DMSO). The chemotaxis plate (ChemoTx, 3 μm pore, Neuroprobe) was loaded by adding 28 μl of a concentration of eotaxin (0.1 to 100 nM) containing a concentration of a compound according to the Examples or solvent to the lower wells of the chemotaxis plate. The filter was then placed over the wells and 25 μl of eosinophil suspension were added to the top of the filter. The plate was incubated for 1 hr at 37° C. in a humidified incubator with a 95% air/5% CO2 atmosphere to allow chemotaxis.
The medium, containing cells that had not migrated, was carefully aspirated from above the filter and discarded. The filter was washed once with phosphate buffered saline (PBS) containing 5 mM EDTA to remove any adherent cells. […] The number of eosinophils migrating was quantified according to the method of Strath et al., J. Immunol. […]

The target of a further test is T1, human H1 receptor (Homo sapiens, UniProt P35367).
T1 construct: purchased Euroscreen SA, Brussels, Belgium ES-390-M; host or cells: CHO-K1
The test is described as follows: Histamine H1 receptor binding, competition displacement of [3H]-pyrilamine. The following applies: 1 nM [3H]-pyrilamine, membranes of recombinant CHO-K1 cells expressing the human H1 receptor; read-out: H1 antagonism pKi (converted). Here is the method:
Histamine H1 receptor binding activity of compounds of the invention was assessed by competition displacement of 1 nM [3H]-pyrilamine (Amersham, Bucks, Product code TRK 608, specific activity 30 Ci/mmol) to 2 μg membranes prepared from recombinant CHO-K1 cells expressing the human H1 receptor (Euroscreen SA, Brussels, Belgium, product code ES-390-M) in assay buffer (50 mM Tris pH 7.4 containing 2 mM MgCl2, 250 mM sucrose and 100 mM NaCl) for 1 hour at room temperature.

T1 sequence (P35367 whole entry): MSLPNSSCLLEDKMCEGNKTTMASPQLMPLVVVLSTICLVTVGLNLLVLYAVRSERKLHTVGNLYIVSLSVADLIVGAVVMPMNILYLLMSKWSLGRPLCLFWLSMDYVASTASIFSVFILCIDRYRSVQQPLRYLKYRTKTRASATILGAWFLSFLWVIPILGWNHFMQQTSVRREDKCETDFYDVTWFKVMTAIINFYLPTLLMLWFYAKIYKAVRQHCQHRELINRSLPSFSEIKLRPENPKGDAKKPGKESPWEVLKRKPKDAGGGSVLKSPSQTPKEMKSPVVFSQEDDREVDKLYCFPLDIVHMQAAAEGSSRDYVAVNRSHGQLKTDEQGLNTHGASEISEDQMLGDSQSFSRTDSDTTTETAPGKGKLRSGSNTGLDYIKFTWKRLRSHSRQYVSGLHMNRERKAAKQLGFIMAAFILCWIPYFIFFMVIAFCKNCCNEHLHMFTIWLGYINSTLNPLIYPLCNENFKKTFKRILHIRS

Turning to `COc1cccc(OC)c1C(C(=O)O)N1CCC(N2CCC(Oc3ccc(Cl)c(Cl)c3)CC2)CC1` (stereo not drawn) [Example 2, 4-(3,4-dichlorophenoxy)-α-(2,6-dimethoxyphenyl)-[1,4′-bipiperidine]-1′-acetic acid], in test [1], the “% Inhibition (3 nM Human Eotaxin)” value amounted to 90%. Further, the Ki on human H1 receptor was 158 nM.
`Cc1cc(Cl)ccc1OC1CCN(C2CCN(C(C(=O)O)c3ccccc3)CC2)CC1` (stereo not drawn) [Example 3, 4-(4-chloro-2-methylphenoxy)-α-phenyl-[1,4′-bipiperidine]-1′-acetic acid]: the “% Inhibition (3 nM Human Eotaxin)” value in test [1] is on record as 105%. The Ki at human H1 receptor is 50.1 nM.
